Assay results as given in PubChem BioAssay AID248 (DTP/NCI, 2004).
“And” between values parts separate entries of the source, which are not always exact repeats. Equal entries are not always repeated. Toxic doses and inconclusive results are not listed. Rule as the data show it: active = T/C of 150% or more; inactive = T/C below 125%.

Tested on: L1210 leukemia ip in BDF1 mice, survival T/C
Assay: NCI In Vivo Anticancer Drug Screen. Data for tumor model L1210 Leukemia (intraperitoneal) in B6D2F1 (BDF1) mice
Settings: endpoint: mean survival time, higher = longer survival
In short: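 Each compound was tested against a transplantable tumor grown in mice. The endpoint was survival, with treated animals benchmarked against vehicle controls as a simple ratio.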

[1] = dose: 100.0 mg/kg/injection, schedule: Q01DX001 (ip), vehicle: saline
[2] = dose: 100.0 mg/kg/injection, schedule: Q01DX009 (ip), vehicle: Klucel (hydroxypropylcellulose) (HPC)
[3] = dose: 100.0 mg/kg/injection, schedule: Q04DX003 (ip), vehicle: Klucel (hydroxypropylcellulose) (HPC)
[4] = dose: 200.0 mg/kg/injection, schedule: Q01DX001 (ip), vehicle: saline
[5] = dose: 200.0 mg/kg/injection, schedule: Q01DX009 (ip), vehicle: Klucel (hydroxypropylcellulose) (HPC)
[6] = dose: 200.0 mg/kg/injection, schedule: Q04DX003 (ip), vehicle: Klucel (hydroxypropylcellulose) (HPC)
[7] = dose: 400.0 mg/kg/injection, schedule: Q01DX001 (ip), vehicle: saline
[8] = dose: 400.0 mg/kg/injection, schedule: Q01DX009 (ip), vehicle: Klucel (hydroxypropylcellulose) (HPC)
[9] = dose: 400.0 mg/kg/injection, schedule: Q04DX003 (ip), vehicle: Klucel (hydroxypropylcellulose) (HPC)
[10] = dose: 50.0 mg/kg/injection, schedule: Q01DX001 (ip), vehicle: Klucel (hydroxypropylcellulose) (HPC)
[11] = dose: 100.0 mg/kg/injection, schedule: Q01DX001 (ip), vehicle: Klucel (hydroxypropylcellulose) (HPC)
[12] = dose: 200.0 mg/kg/injection, schedule: Q01DX001 (ip), vehicle: Klucel (hydroxypropylcellulose) (HPC)
[13] = dose: 100.0 mg/kg/injection, schedule: Q01DX009 (ip), vehicle: saline
[14] = dose: 100.0 mg/kg/injection, schedule: Q04DX002 (ip), vehicle: saline
[15] = dose: 200.0 mg/kg/injection, schedule: Q04DX002 (ip), vehicle: saline
[16] = dose: 400.0 mg/kg/injection, schedule: Q04DX002 (ip), vehicle: saline
[17] = dose: 50.0 mg/kg/injection, schedule: Q01DX001 (ip), vehicle: saline

Measured: T/C

c1ccc(C23c4ccccc4C(=NC4CCCCC4)C2N3C2CCCCC2)cc1 (stereo unspecified)
inactive: [1] 94 % of control | [2] 97 % of control | [3] 93 % of control | [4] 104 % of control | [5] 92 % of control | [6] 94 % of control | [7] 110 % of control | [8] 91 % of control | [9] 98 % of control

CC(=O)N(/C=C/C=C/C=C1\C(=O)N(c2ccc(S(=O)(=O)O)cc2)N=C1C)c1ccccc1
inactive: [1] 99 % of control | [4] 98 % of control | [7] 88 % of control

O=[N+]([O-])c1ccc(C2OC(c3ccncc3)=NC2CO)cc1 (stereo unspecified)
inactive: dose: 12.5 mg/kg/injection, schedule: Q04DX002 (ip), vehicle: saline 90 % of control | dose: 25.0 mg/kg/injection, schedule: Q04DX002 (ip), vehicle: saline 97 % of control | dose: 50.0 mg/kg/injection, schedule: Q01DX009 (ip), vehicle: saline 96 % of control | dose: 50.0 mg/kg/injection, schedule: Q04DX002 (ip), vehicle: saline 90 % of control | dose: 75.0 mg/kg/injection, schedule: Q01DX009 (ip), vehicle: saline 102 % of control | dose: 115.0 mg/kg/injection, schedule: Q01DX009 (ip), vehicle: saline 101 % of control

O=C(Nc1ccc(Nc2ccccc2)cc1)Nc1ccccc1Cl
inactive: [2] 90 % of control | [3] 95 % of control | [5] 90 % of control | [6] 92 % of control | [8] 92 % of control | [9] 90 % of control

C[N+](C)(CCCCCCCCCC[N+](C)(C)Cc1ccccc1)Cc1ccccc1
inactive: dose: 1.5 mg/kg/injection, schedule: Q01DX009 (ip), vehicle: saline 106 % of control | dose: 1.5 mg/kg/injection, schedule: Q04DX003 (ip), vehicle: saline 95 % of control | dose: 3.0 mg/kg/injection, schedule: Q01DX009 (ip), vehicle: saline 101 % of control | dose: 3.0 mg/kg/injection, schedule: Q04DX003 (ip), vehicle: saline 97 % of control | dose: 6.0 mg/kg/injection, schedule: Q01DX009 (ip), vehicle: saline 93 % of control | dose: 6.0 mg/kg/injection, schedule: Q04DX003 (ip), vehicle: saline 95 % of control

Nc1ncnc2c1ncn2C1OC(CO)C2OP(=O)(O)OC21 (stereo unspecified)
inactive: dose: 100.0 mg/kg/injection, schedule: Q01DX005 (ip), vehicle: saline 95 % of control | dose: 200.0 mg/kg/injection, schedule: Q01DX005 (ip), vehicle: saline 118 % of control

CCOc1ccc(-n2c(O)c(N=Nc3ccc(Br)cc3)c(=O)n(-c3ccc(OC)cc3)c2=S)cc1
inactive: [10] 94 % of control | [11] 94 % of control | [12] 94 % of control

Cn1nc(C#N)c2c(N)ncnc21
inactive: [1] 104 % of control | [4] 104 % of control | [7] 101 % of control

CC(C)=CCC/C(C)=C/CN
inactive: dose: 25.0 mg/kg/injection, schedule: Q04DX003 (ip), vehicle: saline 101 % of control | dose: 50.0 mg/kg/injection, schedule: Q04DX003 (ip), vehicle: saline 92 % of control | [13] 95 % of control | dose: 100.0 mg/kg/injection, schedule: Q04DX003 (ip), vehicle: saline 97 % of control

Cc1cccc(C2=N/C(=C\c3ccccc3)C(=O)O2)c1
inactive: dose: 100.0 mg/kg/injection, schedule: Q04DX002 (ip), vehicle: saline with Tween-80 95 % of control | dose: 200.0 mg/kg/injection, schedule: Q04DX002 (ip), vehicle: saline with Tween-80 89 % of control | dose: 400.0 mg/kg/injection, schedule: Q04DX002 (ip), vehicle: saline with Tween-80 89 % of control

ClC1=C(Cl)C2(Cl)CC1(Cl)C1OC12 (stereo unspecified)
inactive: dose: 12.5 mg/kg/injection, schedule: Q01DX009 (ip), vehicle: saline with Tween-80 104 % of control | dose: 25.0 mg/kg/injection, schedule: Q01DX009 (ip), vehicle: saline with Tween-80 104 % of control | dose: 50.0 mg/kg/injection, schedule: Q01DX009 (ip), vehicle: saline with Tween-80 96 % of control

CS(=O)(=O)Oc1c(Cl)cc(Cl)c2cccnc12
inactive: dose: 100.0 mg/kg/injection, schedule: Q01DX001 (ip), vehicle: carboxymethylcellulose (CMC) 102 % of control | dose: 200.0 mg/kg/injection, schedule: Q01DX001 (ip), vehicle: carboxymethylcellulose (CMC) 102 % of control | dose: 400.0 mg/kg/injection, schedule: Q01DX001 (ip), vehicle: carboxymethylcellulose (CMC) 111 % of control

COc1cc2c(cc1OC)C1Cc3cc(OC)c(OC)cc3C(C2)N1
inactive: dose: 75.0 mg/kg/injection, schedule: Q01DX001 (ip), vehicle: saline 97 % of control | dose: 150.0 mg/kg/injection, schedule: Q01DX001 (ip), vehicle: saline 97 % of control | dose: 300.0 mg/kg/injection, schedule: Q01DX001 (ip), vehicle: saline 97 % of control

CC(=O)c1cc(Cl)ccc1Cl
inactive: [14] 97 % of control | [15] 103 % of control | [16] 103 % of control

NC(=O)c1cnc(N)nc1C(N)=O
inactive: dose: 100.0 mg/kg/injection, schedule: Q01DX009 (ip), vehicle: saline with Tween-80 94 % of control | dose: 100.0 mg/kg/injection, schedule: Q04DX003 (ip), vehicle: saline with Tween-80 96 % of control | dose: 200.0 mg/kg/injection, schedule: Q01DX009 (ip), vehicle: saline with Tween-80 100 % of control | dose: 200.0 mg/kg/injection, schedule: Q04DX003 (ip), vehicle: saline with Tween-80 100 % of control | dose: 400.0 mg/kg/injection, schedule: Q01DX009 (ip), vehicle: saline with Tween-80 96 % of control | dose: 400.0 mg/kg/injection, schedule: Q04DX003 (ip), vehicle: saline with Tween-80 94 % of control

CCCC(SCC(=O)O)SCC(=O)O
inactive: [13] 93 % of control | [14] 97 % of control | dose: 200.0 mg/kg/injection, schedule: Q01DX009 (ip), vehicle: saline 100 % of control | [15] 100 % of control | [16] 95 % of control

NC(=O)c1ccc[n+](CCF)c1
inactive: [1] 98 % of control | [4] 98 % of control | [7] 104 % of control

CCN1/C(=C/C=C2/SC(=S)N(CC(=O)O)C2=O)Oc2ccccc21
inactive: [17] 100 % of control | [1] 96 % of control | [4] 100 % of control | [7] 106 % of control

CC(C)(C)NP(c1ccccc1)c1ccccc1
inactive: [1] 101 % of control | [4] 104 % of control | [7] 98 % of control

COc1ccc(C2OCC(C)([N+](=O)[O-])CO2)cc1 (stereo unspecified)
inactive: [10] 94 % of control | dose: 50.0 mg/kg/injection, schedule: Q04DX002 (ip), vehicle: Klucel (hydroxypropylcellulose) (HPC) 103 % of control | [11] 96 % of control | dose: 100.0 mg/kg/injection, schedule: Q04DX002 (ip), vehicle: Klucel (hydroxypropylcellulose) (HPC) 96 % of control and 102 % of control | [12] 98 % of control | dose: 200.0 mg/kg/injection, schedule: Q04DX002 (ip), vehicle: Klucel (hydroxypropylcellulose) (HPC) 96 % of control and 100 % of control | dose: 400.0 mg/kg/injection, schedule: Q01DX001 (ip), vehicle: Klucel (hydroxypropylcellulose) (HPC) 98 % of control | dose: 400.0 mg/kg/injection, schedule: Q04DX002 (ip), vehicle: Klucel (hydroxypropylcellulose) (HPC) 99 % of control and 121 % of control

NC(=S)N=Nc1ccc(O)cc1
inactive: [17] 103 % of control | [1] 100 % of control | [4] 100 % of control | [7] 109 % of control

CN(C)c1ccc(C(=O)O)cc1
inactive: dose: 100.0 mg/kg/injection, schedule: Q01DX009 (ip), vehicle: other 93 % of control | dose: 100.0 mg/kg/injection, schedule: Q04DX003 (ip), vehicle: other 104 % of control | dose: 200.0 mg/kg/injection, schedule: Q01DX009 (ip), vehicle: other 87 % of control | dose: 200.0 mg/kg/injection, schedule: Q04DX003 (ip), vehicle: other 107 % of control | dose: 400.0 mg/kg/injection, schedule: Q01DX009 (ip), vehicle: other 96 % of control | dose: 400.0 mg/kg/injection, schedule: Q04DX003 (ip), vehicle: other 95 % of control
